According to ChEMBL document CHEMBL4196231, “Peptidomimetics for Targeting Protein-Protein Interactions between DOT1L and MLL Oncofusion Proteins AF9 and ENL” (ACS Med Chem Lett, 2018):
Square brackets hold non-standard residues; d marks the D form. Peptide text beside a SMILES is read from it. * marks the point of attachment. Biotinyl(3aR,4S,6aS) = O=C1N[C@H]2[C@H](CCCCC(=O)*)SC[C@H]2N1; Ala(cPent) = N[C@@H](CC1CCCC1)C(=O)O; Dap = NC[C@H](N)C(=O)O; Ahx = NCCCCCC(=O)O

How the values were obtained:
Protein ENL [1] = molecular target: T1, Protein ENL (Homo sapiens, UniProt Q03111); assay: Displacement of N-Flu-DOT1L from MBP-tagged ENL (unknown origin) (489 to 559 residues) expressed in Escherichia coli BL21(DE3) measured after 3 hrs by fluorescence polarization assay
T1 sequence (Q03111 whole entry): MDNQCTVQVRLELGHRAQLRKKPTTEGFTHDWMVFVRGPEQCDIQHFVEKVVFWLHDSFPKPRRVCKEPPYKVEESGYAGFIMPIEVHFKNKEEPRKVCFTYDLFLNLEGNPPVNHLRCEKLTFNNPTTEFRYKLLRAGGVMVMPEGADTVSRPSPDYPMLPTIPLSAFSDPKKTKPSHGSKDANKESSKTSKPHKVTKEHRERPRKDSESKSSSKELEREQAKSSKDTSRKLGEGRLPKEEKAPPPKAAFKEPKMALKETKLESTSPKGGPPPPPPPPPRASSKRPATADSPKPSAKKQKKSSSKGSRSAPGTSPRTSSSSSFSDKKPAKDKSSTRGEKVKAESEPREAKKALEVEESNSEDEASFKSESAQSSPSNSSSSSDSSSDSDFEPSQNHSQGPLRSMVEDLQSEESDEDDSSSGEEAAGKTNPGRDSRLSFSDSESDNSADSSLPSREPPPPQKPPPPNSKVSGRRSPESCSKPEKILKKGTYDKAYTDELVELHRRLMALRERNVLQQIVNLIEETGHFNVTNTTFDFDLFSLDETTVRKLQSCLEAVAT

Protein ENL [2] = molecular target: T1, Protein ENL; assay: Binding affinity to MBP-tagged ENL (unknown origin) (489 to 559 residues) expressed in Escherichia coli BL21(DE3) by Bio-layer interferometry
Protein AF-9 [3] = molecular target: T2, Protein AF-9 (Homo sapiens, UniProt P42568); assay: Displacement of N-Flu-DOT1L from MBP-tagged AF9 (unknown origin) (487 to 568 residues) expressed in Escherichia coli BL21(DE3) measured after 3 hrs by fluorescence polarization assay
T2 sequence (P42568 whole entry): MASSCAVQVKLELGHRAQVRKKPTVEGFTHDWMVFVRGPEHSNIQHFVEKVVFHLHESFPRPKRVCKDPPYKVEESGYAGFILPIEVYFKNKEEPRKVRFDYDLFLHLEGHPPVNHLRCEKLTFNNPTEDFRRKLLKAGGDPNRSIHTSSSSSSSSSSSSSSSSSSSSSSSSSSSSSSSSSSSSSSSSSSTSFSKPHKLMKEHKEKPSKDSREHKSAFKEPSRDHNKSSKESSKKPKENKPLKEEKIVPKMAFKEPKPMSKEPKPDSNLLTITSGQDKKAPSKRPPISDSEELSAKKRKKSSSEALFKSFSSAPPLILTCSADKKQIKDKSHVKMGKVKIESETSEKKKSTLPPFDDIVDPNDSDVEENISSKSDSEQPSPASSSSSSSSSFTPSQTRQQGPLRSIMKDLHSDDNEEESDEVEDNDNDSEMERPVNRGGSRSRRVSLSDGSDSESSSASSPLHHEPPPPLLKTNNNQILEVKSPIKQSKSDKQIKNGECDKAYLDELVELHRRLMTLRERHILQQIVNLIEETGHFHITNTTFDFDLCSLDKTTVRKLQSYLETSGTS

Protein AF-9 [4] = molecular target: T2, Protein AF-9; assay: Binding affinity to MBP-tagged AF9 (unknown origin) (487 to 568 residues) expressed in Escherichia coli BL21(DE3) by Bio-layer interferometry

CC(C)C[C@H](NC(=O)[C@@H]1CCCN1C(=O)[C@H](CC1CCCC1)NC(=O)[C@H](CN)NC(=O)[C@@H](NC(=O)[C@@H]1CCCN1C(=O)[C@H](CC(C)C)NC(=O)CCCCCNC(=O)CCCC[C@@H]1SC[C@H]2NC(=O)N[C@@H]12)C(C)C)C(=O)N(C)C ({Biotinyl(3aR,4S,6aS)-Ahx}-LPV[Dap][Ala(cPent)]PL-NMe2)
Ki (Protein ENL [1]): 63 nM | Kd (Protein ENL [2]): 57 nM | Ki (Protein AF-9 [3]): 10 nM | Kd (Protein AF-9 [4]): 15 nM

Ac-LPISIPL-NH2
IC50 (Protein ENL [1]): 10300 nM | Ki (Protein ENL [1]): 3370 nM | IC50 (Protein AF-9 [3]): 1040 nM | Ki (Protein AF-9 [3]): 160 nM

Ac-LPISIPLSTV-NH2
IC50 (Protein ENL [1]): 630 nM | Ki (Protein ENL [1]): 150 nM | IC50 (Protein AF-9 [3]): 140 nM | Ki (Protein AF-9 [3]): 20 nM

Ac-LPVSIPL-NH2
IC50 (Protein ENL [1]): 4790 nM | Ki (Protein ENL [1]): 1430 nM | IC50 (Protein AF-9 [3]): 1020 nM | Ki (Protein AF-9 [3]): 160 nM
